One series is described as follows: MTT cell viability assay. In kind it is cell-based, human. The settings on record: human, HaCaT keratinocyte cells (healthy control line), 24 h, compounds 0.01–40 μM, healthy control line, read-out: In Vitro Cytotoxicity, EC50 ± SD, HaCaT. From the text: (§1) Initially, we phenotypically screened the synthesized compounds over a panel of tumor cell lines composed of HEPG2, A375, SHSY5Y, MCF7, and A549 derived from liver tumor, melanoma, neuroblastoma, breast cancer, and lung adenocarcinoma, respectively. We also considered the HaCaT cell line, coming from keratinocytes, as a healthy control line. As reference, cytotoxic chemotherapeutic agent 5-fluorouracil (5-FU) has been used. The results obtained performing the MTT (3-(4,5-dimethylthiazolyl-2)-2,5-diphenyltetrazolium bromide) assay are summarized in Table .
(§2) The human neuroblastoma SHSY5Y, melanoma A375, human breast cancer MCF7, nonsmall lung cancer A549, and human epidermal keratinocyte HaCaT cell lines were obtained from ATCC and were grown in Dulbecco’s Modified Eagle Medium (DMEM) supplemented with 10% (v/v) FBS, 2 mM L-glutamine, 100 U/mL penicillin, and 0.1 mg/mL streptomycin.
(§3) Cell viability was established by measuring mitochondrial metabolic activity with MTT. In brief, HEPG2 (1 × 10^4 cells/well), A375 (2 × 10^3 cells/well), HaCaT (3 × 10^3 cells/well), A549 (3 × 10^3 cells/well), SHSY5Y (2 × 10^4 cells/well), and MCF 7 (5 × 10^3 cells/well) were plated into 96-well plates for 24 h, then the compounds (0.01–40 μM) were added. After 24h, cells were replaced with a fresh medium containing 0.5 mg/mL MTT. Cells were incubated 1–3 h at 37 °C, then the medium was discarded, and formazan blue crystals in the cells were dissolved in 100 μL per well of a solution containing isopropanol/HCl 0.1 M. The absorbance was measured at 570 nm using a microplate reader (Multiskan Go, Thermo Scientific, Waltham, MA, USA). Cell viability was expressed as a percentage relative to the untreated cells cultured in medium with 0.1% DMSO and set to 100%, whereas 10% DMSO was used as positive control and set to 0% of viability. The EC50 values were calculated using GraphPad Prism 8.0 software by nonlinear regression of dose–response inhibition.
(Tetrazolium dyes change colour on reduction, which living cells bring about.)

The next series relates to A375. In words: MTT cell viability assay. In kind it is cell-based. The conditions noted are these: Homo sapiens, A-375, 24 h, compounds 0.01–40 μM, read-out: In Vitro Cytotoxicity, EC50 ± SD, A375.
Source text: as §1, §2, §3

Another series has as its system A549. In words: MTT cell viability assay. In kind it is cell-based. The conditions noted are these: Homo sapiens, 24 h, compounds 0.01–40 μM, read-out: In Vitro Cytotoxicity, EC50 ± SD, A549.
Source text: as §1, §2, §3

A further series concerns MCF7. Nature of the series: MTT cell viability assay. In kind it is cell-based. The conditions noted are these: Homo sapiens, 24 h, compounds 0.01–40 μM, read-out: In Vitro Cytotoxicity, EC50 ± SD, MCF7.
Source text: as §1, §2, §3

A further series has as its system SHSY5Y. In words: MTT cell viability assay. In kind it is cell-based. The conditions noted are these: Homo sapiens, SH-SY5Y, 24 h, compounds 0.01–40 μM, read-out: In Vitro Cytotoxicity, EC50 ± SD, SHSY5Y.
Source text: as §1, §2, §3

A further series has as its target T1, Cathepsin K (Homo sapiens, UniProt P43235).
T1 construct: purchased BPS Bioscience
Nature of the series: Cathepsin K Inhibitor Screening Assay Kit (BPS Bioscience). The conditions noted are these: top concentration 30 μM; read-out: EC50 or IC50, Cathepsin K. In kind it is biochemical. The procedure: The assay was performed in a volume of 50 μL in a 96-well black plate. The Cathepsin K inhibitor assay (BPS Bioscience, USA) was designed to measure protease activity by the presence of an internally quenched fluorogenic substrate. Upon cleavage by Cathepsin K (CTSK), the fluorescence of the substrate increases dramatically. For the activity measurement, protease (final concentration, 0.5 ng per reaction), the Fluorogenic Cathepsin K Substrate (final concentration, 70 μM), E-64 (known inhibitor, as positive control) or compounds were incubated for 1 h at room temperature. The compounds were added at different concentrations in the reaction buffer, starting with a final concentration of 30 μM. Buffer with the same amount of DMSO (1%) was used as a negative control. After the incubation time, the fluorescence signals (excitation/emission, 360 nm/460 nm) were read with a PerkinElmer EnSpire multimode plate reader (PerkinElmer, Waltham, MA, USA). Experiments were performed in triplicate. IC50 values were calculated with GraphPad Prism 8.0 software by nonlinear dose–response inhibition regression.

Series [1] has as its target T2, G-protein coupled receptor 55 (Homo sapiens, UniProt Q9Y2T6).
T2 construct: Eurofins (contract assay)
Nature of the series: Cell Based Agonist Arrestin LeadHunter Assay. The settings on record: Eurofins, read-out: EC50 or IC50, G-protein coupled receptor 55, agonist mode. From the text:
For displacement assays on G-protein coupled receptor 55 (GPR55), Vasopressin V2 receptor (V2R), Adenosine A1 receptor (A1AR), Fibroblast growth factor receptor 1 (FGFR1), Vascular endothelial growth factor receptor 2 (VEGFR2), Platelet-derived growth factor receptor beta (PDGFRB), Vascular endothelial growth factor receptor 1 (VEGFR1), Thromboxane Synthase (TXS) and Phosphodiesterase 10A (PDE10A), we commissioned the Eurofins company which employed its specific experimental methods, accessible at the link: https://www.eurofins.com/.

A further series relates to A375 cells. Nature of the series: Annexin V-FITC staining (apoptosis, flow cytometry). In kind it is cell-based, human. The conditions noted are these: 72 h. The procedure: Given the cytotoxic role of the compounds, an annexin V-FITC staining was performed to evaluate their effects on cell apoptosis.
Apoptosis of the cells was assessed using the Annexin V-FITC/PI reagents. A375 cells (3 × 10^4 cells/well) were seeded into 24-well plates and incubated for 72 h with compounds (5, 2.5, and 1.25 μM). After treatment, the collected cells were resuspended in a 100 μL assay buffer, then 5 μL Annexin V-FITC and 1 μL PI reagents were added following an incubation for 20 min at room temperature according to the manufacturer’s protocol (Dead Cell Apoptosis Kits with Annexin V for Flow Cytometry, Thermo Fisher Scientific). Cells were analyzed with a Becton Dickinson FACScan flow cytometer using the Cell Quest software, version 4 (Franklin Lakes, NJ, USA).

The target in the next series is human CB2R (Homo sapiens, UniProt P34972). In words: Competition binding assay, displacement of [3H]-CP-55,940. Details: host or cells: HEK-293 membranes. The settings on record: displacement of [3H]-CP-55,940, HEK-293 membranes; read-out: EC50 or IC50, cannabinoid receptor 2. The procedure:
Binding assays at equilibrium were conducted as described in Di Micco et al., 2024. […]. All compounds were evaluated following the manufacturer’s protocol (PerkinElmer distributed by Revvity, Italy). […] The K i values were calculated using the Cheng-Prusoff equation, based on the IC50 values obtained through GraphPad PRISM software (version 10.2.2). The results are expressed as K i (μM), represented as mean ± SEM, and reflect the average of three independent experiments performed in duplicate.

The structures appear in SMILES notation. Where “and” joins values, the source holds several entries; their conditions need not be identical. Identical values can stand only once.

Chain of human CB2R (P34972 whole entry): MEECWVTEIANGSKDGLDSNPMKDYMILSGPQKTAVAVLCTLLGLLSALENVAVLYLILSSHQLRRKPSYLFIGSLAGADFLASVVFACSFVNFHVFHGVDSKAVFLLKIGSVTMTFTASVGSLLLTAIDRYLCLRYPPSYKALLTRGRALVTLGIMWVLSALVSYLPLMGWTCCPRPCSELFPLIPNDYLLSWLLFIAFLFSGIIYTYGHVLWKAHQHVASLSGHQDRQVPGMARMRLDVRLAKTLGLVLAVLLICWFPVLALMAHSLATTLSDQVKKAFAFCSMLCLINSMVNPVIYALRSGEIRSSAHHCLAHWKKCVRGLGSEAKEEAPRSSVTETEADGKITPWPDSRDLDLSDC
T1 sequence (P43235 115-329): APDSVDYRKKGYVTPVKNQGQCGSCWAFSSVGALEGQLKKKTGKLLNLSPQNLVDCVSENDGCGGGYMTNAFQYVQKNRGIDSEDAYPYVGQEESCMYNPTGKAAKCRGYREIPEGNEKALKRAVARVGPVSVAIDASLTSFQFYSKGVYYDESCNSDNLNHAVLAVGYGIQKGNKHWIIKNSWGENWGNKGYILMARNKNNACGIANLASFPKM
T2 sequence (Q9Y2T6 whole entry): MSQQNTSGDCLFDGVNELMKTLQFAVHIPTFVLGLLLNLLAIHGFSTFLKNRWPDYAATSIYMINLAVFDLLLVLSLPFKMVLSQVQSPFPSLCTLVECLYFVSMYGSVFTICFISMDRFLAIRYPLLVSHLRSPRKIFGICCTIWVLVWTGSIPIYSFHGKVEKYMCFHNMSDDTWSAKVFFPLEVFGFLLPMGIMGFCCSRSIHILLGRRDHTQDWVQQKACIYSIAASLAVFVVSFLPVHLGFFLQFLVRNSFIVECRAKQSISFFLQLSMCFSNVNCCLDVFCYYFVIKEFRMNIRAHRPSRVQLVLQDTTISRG

`CC(C)C[C@H]1C(=O)N(Cc2ccc(C(F)(F)F)cc2)c2ccccc2C(=O)N1Cc1ccc(C(F)(F)F)cc1` [Compound 31, (S)-3-Isobutyl-1,4-bis(4-(trifluoromethyl)benzyl)-3,4-dihydro-1H-benzo[e][1,4]diazepine-2,5-dione]: the EC50 (commonly the concentration that produces a half-maximal response) at 24 h in “MTT cell viability assay” was greater than 40 µM. Moreover, the EC50 with A375 is 0.65 ± 0.4 µM; with A549, greater than 40 µM; in the series with MCF7, 17.3 ± 2.38 µM; with SHSY5Y, greater than 40 µM; in series [1], no less than 30 µM. Further, the results for the concentration for half-maximal inhibition (IC50) on Cathepsin K and at human CB2R were greater than 30 µM and 9.7 ± 0.67 µM, respectively. Besides, the “percentage of apoptotic cells” value in the series with A375 cells (1.25 μM) amounted to 20.40 ± 4.56%; in the series with A375 cells (2.5 μM), 81.10 ± 3.89%; in the series with A375 cells (5 μM) it was 88.68 ± 2.10%.
With `CC(C)C[C@@H](C(=O)OCc1ccccc1)N1Cc2ccccc2NC1=O` [Compound 63, Benzyl (S)-4-Methyl-2-(2-oxo-1,4-dihydroquinazolin-3(2H)-yl)pentanoate], in the series “MTT cell viability assay”, the EC50 at 24 h was 21.4 ± 0.78 µM. Also, the 50% effective concentration (EC50) with A375 is 2.29 ± 1.12 µM; in the series with A549 it was 36.4 ± 3.15 µM; in the series on MCF7 it was 27.9 ± 2.44 µM; in the series on SHSY5Y, 23.2 ± 4.17 µM; in series [1], no less than 30 µM. The IC50 (in general, the concentration that inhibits the measured activity by half) on Cathepsin K was greater than 30 µM; on human CB2R it was 6.9 µM and 6.91 µM. Also, the “percentage of apoptotic cells” value came to 16.52 ± 3.24% with A375 cells (1.25 μM), 58.90 ± 1.89% in the series with A375 cells (2.5 μM) and 71.25 ± 0.11% with A375 cells (5 μM).

(Values after paper PMC12362587, “Untargeted Diversity-Oriented Synthesis for the Discovery of New Antitumor Agents: An Integrated Approach of Inverse Virtual Screening, Bioinformatics, and Omics for Target Deconvolution” (Journal of Medicinal Chemistry, 2025).)
